Results taken from US20110039762A1, “TARGETED ANTIMICROBIAL MOIETIES” (C3 JIAN, INC., priority 2009, published 2011).
In brackets after ≈: the same amount, converted by molar mass. Like-named read-outs stand apart in the source and are kept apart here. Bridge positions count the residues as written; N and C are the ends. Square brackets hold non-standard residues; d marks the D form. Ends that are not written are not given here. Peptide text beside a SMILES is read from it. I, II: the chains in the order shown. Aoc = NCCCCCCCC(=O)O

Legend:
[1] = system: S. mutans; experiment: Post-antibiotic effect assay (growth retardation after 10 min exposure); type: cell-based, Streptococcus mutans; details: S. mutans monoculture, peptide 10 min, then fresh medium
Protocol: The activity and selectivity of MH-STAMPs after a 10 min incubation was determined by growth retardation experiments against targeted and untargeted bacteria in monocultures, as described previously (Id.). Cells from overnight cultures were diluted to ˜5×10^6 cfu/mL in MH (or TH with 1% sucrose for S. mutans), normalized by OD600 0.05-0.1 and seeded to 96-well plates. Cultures were then grown under the appropriate conditions for 2 h (3 h for S. mutans) prior to the addition of peptides for 10 min. Plates were then centrifuged at 3000×g for 5 min, the supernatants discarded, fresh medium returned (MH or TH without sucrose for S. mutans), and incubation resumed. Bacterial growth after treatment was then monitored over time by OD600.

[2] = system: Klebsiella pneumoniae KAY 2026; type: cell-based
Protocol: (§1) Aerobic Gram-negative organisms were grown in Lauri-Bertaini (LB) broth and Gram-positive bacteria in Brain-heart infusion (BHI) broth. Streptococcus mutans JM11 (spectinomycin resistant, UA140 background) was grown in Todd-Hewitt (TH) broth under anaerobic conditions (80% N2, 15% CO2, 5% H2) at 37° C. Merritt et al. (2005) J Microbiol Meth., 61: 161-170. All bacteria were grown overnight to an OD600 of 0.8-1.0 prior to appropriate dilution and antimicrobial testing.
(§2) Briefly, ˜1×10^5 cfu/mL bacteria were diluted in TH (S. mutans), or Mueller-Hinton (MH) broth (all other organisms) and distributed to 96-well plates. Serially-diluted (2-fold) peptides were then added and the plates incubated at 37° C. for 18-24 h. […] All experiments were conducted 10 times.

[3] = system: Staphylococcus aureus Newmann; type: cell-based
Protocol: as §1, §2

[4] = system: S. mutans; type: cell-based, Streptococcus mutans
[5] = system: S. epidermidis; type: cell-based, Staphylococcus epidermidis
How it was run: (§3)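 MIC determined per NCCLS standard microdilution, with peptide 2-fold dilution series against ˜1×10^5 cfu/mL cells in Mueller-Hinton medium, incubated 18-24 h at 37° C.; ten independent experiments.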

[6] = system: Mixed planktonic populations of P. aeruginosa, E. coli, S. epidermidis, and S. mutans; experiment: Microbial population shift assay; type: cell-based; details: 10 μM peptide, 24 h
Protocol: Peptide (10 μM) or mock-treatment (1× PBS) was then added and samples were incubated at 37° C. for 24 h under anaerobic conditions (80% N2, 15% CO2, 5% H2). […] Plates were then incubated 37° C. under aerobic conditions (TH plates were incubated anaerobically) and colonies counted after 24 h to determine survivors. […] Gram stains and direct microscopic observation (from select isolated colonies) were undertaken to confirm species identity (data not shown). The detection limit of the assay was 200 cfu/mL.

[7] = system: E. coli; type: cell-based, Escherichia coli
Protocol: (§4) Typically, the in vitro antimicrobial activity of antimicrobial agents is tested using standard NCCLS bacterial inhibition assays, or MIC tests (see, National Committee on Clinical Laboratory Standards “Performance Standards for Antimicrobial Susceptibility Testing,” NCCLS Document M100-S5 Vol. 14, No. 16, December 1994; “Methods for dilution antimicrobial susceptibility test for bacteria that grow aerobically-Third Edition,” Approved Standard M7-A3, National Committee for Clinical Standards, Villanova, Pa.).
as §2

[8] = system: P. aeruginosa; type: cell-based, Pseudomonas aeruginosa
Protocol: as §4, §2

[9] = system: MRSA; experiment: Kill or inhibit growth/proliferation; morphology, biofilm and growth disruption (Tables 5, 6); type: cell-based, Methicillin-resistant Staphylococcus aureus; design: key: A: Peptide aggregates; B: Less hyphal formation; Clumps; Diffuse clumps and small polyps; F: Diffuse growth; H: Thin; I: Growth inhibition; Microcolony formation; Rippled; Small polyps; Thick; W: Halo formation on top, microlonies on bottom
[10] = system: C. jeikeium; experiment: MIC (broth microdilution); type: cell-based, Corynebacterium jeikeium
Protocol: as §4, §2

[11] = system: T. rubrum; experiment: MIC (broth microdilution); type: cell-based, Trichophyton rubrum
Protocol: as §4, §2

[12] = system: A. niger; experiment: MIC (broth microdilution); type: cell-based, Aspergillus niger
Protocol: as §4, §2

[13] = system: M. luteus; experiment: Kill or inhibit growth/proliferation; morphology, biofilm and growth disruption (Tables 5, 6); type: cell-based, Micrococcus luteus; design: key: A: Peptide aggregates; B: Less hyphal formation; Clumps; Diffuse clumps and small polyps; F: Diffuse growth; H: Thin; I: Growth inhibition; Microcolony formation; Rippled; Small polyps; Thick; W: Halo formation on top, microlonies on bottom
[14] = system: S. pneumoniae; experiment: as above; type: cell-based, Streptococcus pneumoniae; design: key: A: Peptide aggregates; B: Less hyphal formation; Clumps; Diffuse clumps and small polyps; F: Diffuse growth; H: Thin; I: Growth inhibition; Microcolony formation; Rippled; Small polyps; Thick; W: Halo formation on top, microlonies on bottom
[15] = system: B. subtilis; experiment: MIC (broth microdilution); type: cell-based, Bacillus subtilis
How it was run: as §3

[16] = system: MRSA; experiment: MIC (broth microdilution); type: cell-based, Methicillin-resistant Staphylococcus aureus
How it was run: as §3

[17] = system: C. jejuni; experiment: Kill or inhibit growth/proliferation; morphology, biofilm and growth disruption (Tables 5, 6); type: cell-based, Campylobacter jejuni; design: key: A: Peptide aggregates; B: Less hyphal formation; Clumps; Diffuse clumps and small polyps; F: Diffuse growth; H: Thin; I: Growth inhibition; Microcolony formation; Rippled; Small polyps; Thick; W: Halo formation on top, microlonies on bottom
[18] = system: C. jeikeium; experiment: as above; type: cell-based, Corynebacterium jeikeium; design: key: A: Peptide aggregates; B: Less hyphal formation; Clumps; Diffuse clumps and small polyps; F: Diffuse growth; H: Thin; I: Growth inhibition; Microcolony formation; Rippled; Small polyps; Thick; W: Halo formation on top, microlonies on bottom
[19] = system: microorganisms; experiment: Peptides having multiple activities (targeting/binding, antimicrobial, growth or phenotype altering)
Source text: In certain embodiments, peptides described herein can have multiple activities. Thus for example, a peptide can have both binding/targeting activity and antimicrobial activity. Such peptides can be used, e.g., in a chimeric construct, for any or all of these properties. Thus, for example, a peptide designated “B” in Table 8 can be used as a targeting peptide. If it is also designated G or M it can also be used for antimicrobial activity.

[20] = system: P. aeruginosa; experiment: Kill or inhibit growth/proliferation; morphology, biofilm and growth disruption (Tables 5, 6); type: cell-based, Pseudomonas aeruginosa; design: key: A: Peptide aggregates; B: Less hyphal formation; Clumps; Diffuse clumps and small polyps; F: Diffuse growth; H: Thin; I: Growth inhibition; Microcolony formation; Rippled; Small polyps; Thick; W: Halo formation on top, microlonies on bottom
[21] = system: S. epidermidis; experiment: as above; type: cell-based, Staphylococcus epidermidis; design: key: A: Peptide aggregates; B: Less hyphal formation; Clumps; Diffuse clumps and small polyps; F: Diffuse growth; H: Thin; I: Growth inhibition; Microcolony formation; Rippled; Small polyps; Thick; W: Halo formation on top, microlonies on bottom
[22] = system: B. subtilis; experiment: as above; type: cell-based, Bacillus subtilis; design: key: A: Peptide aggregates; B: Less hyphal formation; Clumps; Diffuse clumps and small polyps; F: Diffuse growth; H: Thin; I: Growth inhibition; Microcolony formation; Rippled; Small polyps; Thick; W: Halo formation on top, microlonies on bottom
[23] = system: C. albicans; experiment: as above; type: cell-based, Candida albicans; design: key: A: Peptide aggregates; B: Less hyphal formation; Clumps; Diffuse clumps and small polyps; F: Diffuse growth; H: Thin; I: Growth inhibition; Microcolony formation; Rippled; Small polyps; Thick; W: Halo formation on top, microlonies on bottom
[24] = system: A. baumannii; experiment: MIC (broth microdilution); type: cell-based, Acinetobacter baumannii
Protocol: as §4, §2

[25] = system: E. coli; experiment: Kill or inhibit growth/proliferation; morphology, biofilm and growth disruption (Tables 5, 6); type: cell-based, Escherichia coli; design: key: A: Peptide aggregates; B: Less hyphal formation; Clumps; Diffuse clumps and small polyps; F: Diffuse growth; H: Thin; I: Growth inhibition; Microcolony formation; Rippled; Small polyps; Thick; W: Halo formation on top, microlonies on bottom
[26] = system: C. difficile; experiment: MIC (broth microdilution); type: cell-based, Clostridium difficile
Protocol: as §4, §2

For `CC[C@H](C)[C@H](NC(=O)[C@H](Cc1ccccc1)NC(=O)CCCCCCCNC(=O)[C@H](CCCCNC(=O)CNC(=O)CNC(=O)CNC(=O)[C@H](Cc1c[nH]cn1)NC(=O)[C@H](CCCCN)NC(=O)[C@H](CCCNC(=N)N)NC(=O)[C@H](Cc1c[nH]cn1)NC(=O)[C@H](CCCCN)NC(=O)[C@H](CCCNC(=N)N)NC(=O)[C@H](Cc1c[nH]cn1)NC(=O)[C@H](CCCCN)NC(=O)[C@H](CCCNC(=N)N)NC(=O)[C@H](Cc1c[nH]cn1)NC(=O)[C@H](CCCCN)NC(=O)[C@@H](N)CCCCN)NC(=O)CNC(=O)CNC(=O)CNC(=O)[C@H](C)NC(=O)[C@H](CCC(=O)O)NC(=O)[C@H](CC(N)=O)NC(=O)[C@H](C)NC(=O)[C@H](C)NC(=O)[C@H](CC(=O)O)NC(C)=O)C(=O)N[C@@H](CCCNC(=N)N)C(=O)N[C@@H](CCCCN)C(=O)N[C@@H](Cc1ccccc1)C(=O)N[C@@H](CC(C)C)C(=O)N[C@@H](CCCCN)C(=O)N[C@@H](CCCCN)C(=O)N[C@@H](Cc1c[nH]c2ccccc12)C(=O)N[C@@H](CC(C)C)C(=O)N[C@@H](CC(C)C)C(N)=O` [BL(KH)-20] (I: Ac-DAANEAGGGK[Aoc]FIRKFLKKWLL-NH2 / II: H-KKHRKHRKHRKHGGG; amide I:10-II:C), the “bacterial growth (OD600) after treatment” value [1] was “not altered”, the MIC [2] was 6.25 µM (≈ 27.3 µg/mL) and the MIC [3] was 6.25 µM (≈ 27.3 µg/mL). The MIC [4] was 6.25 µM (≈ 27.3 µg/mL), the MIC [5] was 6.25 µM (≈ 27.3 µg/mL) and the “recoverable (surviving) cfu/mL” value ([6]; E. coli in mixed culture) was “unchanged numbers”. For the same compound, the “recoverable (surviving) cfu/mL” value ([6]; P. aeruginosa in mixed culture) was “not observed”, the “recoverable (surviving) cfu/mL” value ([6]; S. epidermidis in mixed culture) was “unchanged numbers” and the “recoverable (surviving) cfu/mL” value ([6]; S. mutans in mixed culture) was “higher than input cfu/mL”. It also gave an MIC [7] of 6.25 µM (≈ 27.3 µg/mL) and an MIC [8] of 27.5 ± 7.90 µM (≈ 120 µg/mL).

“GSVIKKRRKRMAKKKHRKLLKKTRIQRRRAGK [PF-527]” was tested, and the “Organism, effect” value [9] was “MRSA (I)”, the MIC [10] was “C. jeikeium, 6.25 μM” and the MIC [11] was “T. rubrum, 25 μM”. The MIC [12] was “A. niger, 50 μM”, the MIC [5] was “S. epidermidis, 25 μM” and the “Organism, effect” value [13] was “M. luteus (S)”. The “Organism, effect” value [14] was “S. pneumoniae (H)”, the MIC [15] was “B. subtilis, 12.5 μM” and the MIC [16] was “MRSA , 50 μM”. The “Organism, effect” value [17] was “C. jejuni (M)”, the “Organism, effect” value [18] was “C. jeikeium (I)” and the Activities [19] was “G B M”. The “Organism, effect” value [20] was “P. aeruginosa (I)”, the “Organism, effect” value [21] was “S. epidermidis (M)” and the “Organism, effect” value [22] was “B. subtilis (I)”. For the same compound, the “Organism, effect” value [23] was “C. albicans (B)” and the MIC [8] was “P. aeruginosa, 50 μM”.

YIQFHLNQQPRPKVKKIKIFL-NH2 [PF-531] was tested, and the MIC ([4]; S. mutans) was “S. mutans, 12.5 μM”, the MIC [10] was “C. jeikeium, 6.25 μM” and the MIC [11] was “T. rubrum, 50 μM”. The MIC [12] was “A. niger, 25 μM”, the MIC ([5]; S. epidermidis) was “S. epidermidis, 50 μM” and the MIC [24] was “A. baumannii, 25 μM”. The “Organism, effect” value [14] was “S. pneumoniae (C)”, the MIC [15] was “B. subtilis, 25 μM” and the “Organism, effect” value [25] was “E. coli (M)”. For the same compound, the MIC [26] was “C. difficile, 12.5 μM”, the Activities [19] was “G M” and the “Organism, effect” value [20] was “P. aeruginosa (I)”. The “Organism, effect” value [21] was “S. epidermidis (I)” and the MIC ([8]; P. aeruginosa) was “P. aeruginosa, 50 μM”.
